Test results from the NIST ThermoML archive (doi:10.1021/je700261b).

Experiment: xn = mol fraction of the nth substance listed
Conditions: Liquid

CCCCO [butan-1-ol] + O=C=O
Conditions | mass density [kg/m3]
323.07 K, 16977 kPa, x2 = 0.0857 | 807.17
323.07 K, 18030 kPa, x2 = 0.0857 | 808.01
323.07 K, 18995 kPa, x2 = 0.0857 | 808.74
323.07 K, 19987 kPa, x2 = 0.0857 | 809.54
323.07 K, 21040 kPa, x2 = 0.0857 | 810.38
323.07 K, 21992 kPa, x2 = 0.0857 | 811.09
323.07 K, 23011 kPa, x2 = 0.0857 | 811.87
323.07 K, 24000 kPa, x2 = 0.0857 | 812.6
323.07 K, 25007 kPa, x2 = 0.0857 | 813.42
323.1 K, 10109 kPa, x2 = 0.4972 | 818.96
323.1 K, 11078 kPa, x2 = 0.4972 | 820.55
323.1 K, 11078 kPa, x2 = 0.5965 | 822.9
323.1 K, 12051 kPa, x2 = 0.4972 | 822.08
323.1 K, 12072 kPa, x2 = 0.5965 | 825.03
323.1 K, 12077 kPa, x2 = 0.8663 | 777.48
323.1 K, 13046 kPa, x2 = 0.8663 | 787.33
323.1 K, 13049 kPa, x2 = 0.4972 | 823.64
323.1 K, 13059 kPa, x2 = 0.5965 | 827.1
323.1 K, 14029 kPa, x2 = 0.8663 | 796.15
323.1 K, 14053 kPa, x2 = 0.4972 | 825.18
323.1 K, 14067 kPa, x2 = 0.5965 | 829.16
323.1 K, 15041 kPa, x2 = 0.4972 | 826.62
323.1 K, 15050 kPa, x2 = 0.8663 | 804.37
323.1 K, 15063 kPa, x2 = 0.5965 | 831.15
323.1 K, 16046 kPa, x2 = 0.5965 | 833.04
323.1 K, 16058 kPa, x2 = 0.4972 | 828.14
323.1 K, 16077 kPa, x2 = 0.8663 | 811.86
323.1 K, 17030 kPa, x2 = 0.5965 | 834.9
323.1 K, 17044 kPa, x2 = 0.8663 | 818.37
323.1 K, 17051 kPa, x2 = 0.4972 | 829.54
323.1 K, 18024 kPa, x2 = 0.8663 | 824.54
323.1 K, 18049 kPa, x2 = 0.5965 | 836.78
323.1 K, 18061 kPa, x2 = 0.4972 | 830.96
323.1 K, 19022 kPa, x2 = 0.4972 | 832.33
323.1 K, 19033 kPa, x2 = 0.8663 | 830.52
323.1 K, 19044 kPa, x2 = 0.5965 | 838.57
323.1 K, 20021 kPa, x2 = 0.4972 | 833.69
323.1 K, 20028 kPa, x2 = 0.8663 | 835.95
323.1 K, 20039 kPa, x2 = 0.5965 | 840.32
323.1 K, 21026 kPa, x2 = 0.8663 | 841.13
323.1 K, 21047 kPa, x2 = 0.4972 | 835.06
323.1 K, 21064 kPa, x2 = 0.5965 | 842.09
323.1 K, 22036 kPa, x2 = 0.4972 | 836.36
323.1 K, 22041 kPa, x2 = 0.5965 | 843.75
323.1 K, 22054 kPa, x2 = 0.8663 | 846.3
323.1 K, 23023 kPa, x2 = 0.5965 | 845.38
323.1 K, 23023 kPa, x2 = 0.8663 | 850.85
323.1 K, 23045 kPa, x2 = 0.4972 | 837.69
323.1 K, 23996 kPa, x2 = 0.4972 | 838.91
323.1 K, 24006 kPa, x2 = 0.8663 | 855.33
323.1 K, 24008 kPa, x2 = 0.5965 | 847
323.1 K, 25012 kPa, x2 = 0.4972 | 840.21
323.1 K, 25040 kPa, x2 = 0.5965 | 848.65
323.1 K, 25041 kPa, x2 = 0.8663 | 859.75
332.94 K, 1010 kPa, x2 = 0.0251 | 781.57
332.94 K, 2077 kPa, x2 = 0.0251 | 782.55
332.94 K, 3046 kPa, x2 = 0.0251 | 783.47
332.94 K, 3990 kPa, x2 = 0.0251 | 784.3
332.94 K, 5002 kPa, x2 = 0.0251 | 785.22
332.94 K, 6026 kPa, x2 = 0.0251 | 786.15
332.94 K, 6975 kPa, x2 = 0.0251 | 786.98
332.94 K, 8009 kPa, x2 = 0.0251 | 787.91
332.94 K, 9084 kPa, x2 = 0.0251 | 788.83
332.94 K, 9985 kPa, x2 = 0.0251 | 789.62
332.94 K, 11024 kPa, x2 = 0.0251 | 790.52
332.94 K, 12040 kPa, x2 = 0.0251 | 791.34
332.94 K, 12968 kPa, x2 = 0.0251 | 792.12
332.94 K, 12999 kPa, x2 = 0.9698 | 600.03
332.94 K, 13994 kPa, x2 = 0.0251 | 792.95
332.94 K, 14036 kPa, x2 = 0.9698 | 638.84
332.94 K, 15021 kPa, x2 = 0.9698 | 667.05
332.94 K, 15041 kPa, x2 = 0.0251 | 793.85
332.94 K, 16014 kPa, x2 = 0.9698 | 689.92
332.94 K, 16061 kPa, x2 = 0.0251 | 794.54
332.94 K, 17001 kPa, x2 = 0.0251 | 795.37
332.94 K, 17022 kPa, x2 = 0.9698 | 709.37
332.94 K, 18009 kPa, x2 = 0.9698 | 725.81
332.94 K, 18031 kPa, x2 = 0.0251 | 796.18
332.94 K, 19010 kPa, x2 = 0.9698 | 740.47
332.94 K, 19042 kPa, x2 = 0.0251 | 796.95
332.94 K, 20027 kPa, x2 = 0.0251 | 797.73
332.94 K, 20028 kPa, x2 = 0.9698 | 753.7
332.94 K, 20987 kPa, x2 = 0.0251 | 798.46
